1 compound from patent US20130183268A1, “DRUG COMBINATIONS WITH FLUORO-SUBSTITUTED OMEGA-CARBOXYARYL DIPHENYL UREA FOR THE TREATMENT AND PREVENTION OF DISEASES AND CONDITIONS” (BAYER HEALTHCARE LLC, priority 2010, published 2013) can be followed below.

In data set [1] the test system is basal pERK in MDA-MB-231 cells. As to the kind of experiment: Bio-Plex phospho-ERK1/2 immunoassay. The class given is cell-based, human. The protocol:
A 96 well pERK immunoassay, using laser flow cytometry (Bio-Rad) platform has been established to measure inhibition of basal pERK in breast cancer cell line. MDA-MB-231 cells were plated at 50,000 cells per well in 96 well microtitre plates in complete growth media. For effects of test compounds on basal pERK1/2 inhibition, the next day after plating, MDA-MB-231 cells were transferred to DMEM with 0.1% BSA and incubated with test compounds diluted 1:3 to a final concentration of 3 μM to 12 nM in 0.1% DMSO. Cells were incubated with test compounds for 2 h, washed, and lysed in Bio-Plex whole cell lysis buffer A. Samples are diluted with buffer B 1:1 (v/v) and directly transferred to assay plate or frozen at −80 C. degrees until processed. 50 μL of diluted MDA-MB-231 cell lysates were incubated with about 2000 of 5 micron Bio-Plex beads conjugated with an anti-ERK1/2 antibody overnight on a shaker at room temperature. The next day, biotinylated phospho-ERK1/2 sandwich immunoassay was performed, beads are washed 3 times during each incubation and then 50 μL of PE-strepavidin was used as a developing reagent. The relative fluorescence units of pERK1/2 were detected by counting 25 beads with Bio-Plex flow cell (probe) at high sensitivity. The IC50 was calculated by taking untreated cells as maximum and no cells (beads only) as background using in an Excel spreadsheet based program.

The subject of data set [2] is MDA MB-231 human breast carcinoma cells. Briefly: MDA-MB231 proliferation assay. The class given is cell-based. The procedure: Human breast carcinoma cells (MDA MB-231, NCI) were cultured in standard growth medium (DMEM) supplemented with 10% heat-inactivated FBS at 37° C. in 5% CO2 (vol/vol) in a humidified incubator. Cells were plated at a density of 3000 cells per well in 90 μL growth medium in a 96 well culture dish. In order to determine T0h CTG values, 24 hours after plating, 100 μL of CellTiter-Glo Luminescent Reagent (Promega) was added to each well and incubated at room temperature for 30 minutes. Luminescence was recorded on a Wallac Victor II instrument. […]
Test compounds are dissolved in 100% DMSO to prepare 10 mM stocks. […] The cells with and without individual test compounds were incubated for 72 hours at which time ATP dependent luminescence was measured, as described previously, to yield T72h values. Optionally, the IC50 values can be determined with a least squares analysis program using compound concentration versus percent inhibition.
% Inhibition=[1−(T72h test−T0h)/(T72h ctrl−T0h)]×100, where • T72h test=ATP dependent luminescence at 72 hours in the presence of test compound • T72h ctrl=ATP dependent luminescence at 72 hours in the absence of test compound • T0h=ATP dependent luminescence at Time Zero

Data set [3] is described as follows: Metabolite profile, incubation of [14C]regorafenib with liver microsomes (man). Conditions: [14C]regorafenib 20 μM, liver microsomes 0.5 mg/mL, 60 min. The class given is in vitro ADME. The procedure:
(§1) N-oxide (M-2), hydroxymethyl (M-3), de-methylated (M-4) and N-oxide-demethylated (M-5) metabolites of the fluoro-substituted diaryl urea of Formula (I) are shown below. They were identified as metabolites of regorafenib in vitro upon incubation with liver enzymes of various mammalian species (man, dog, rat, mouse). Studies reveal that its metabolites show high protein binding in man and animal species (data not shown). [table]
Background: Liver microsomes are vesicles of endoplasmic reticulum, rich in cytochrome P450 enzymes.

Data set [4] has as its target T1, Lck-activated c-raf (Lck/c-raf) (Homo sapiens, UniProt P04049).
T1 construct: GST-c-raf (from amino acid 302 to amino acid 648) and Lck (full-length); made in house; host or cells: Sf9 insect cells (baculovirus, co-infected with Lck baculovirus)
As to the kind of experiment: c-raf (raf-1) biochemical assay. Conditions: in words. The procedure:
The c-raf biochemical assay was performed with a c-raf enzyme that was activated (phosphorylated) by Lck kinase. Lck-activated c-raf (Lck/c-raf) was produced in Sf9 insect cells by co-infecting cells with baculoviruses expressing, under the control of the polyhedrin promoter, GST-c-raf (from amino acid 302 to amino acid 648) and Lck (full-length). Both baculoviruses were used at the multiplicity of infection of 2.5 and the cells were harvested 48 h post infection.
MEK-1 protein was produced in Sf9 insect cells by infecting cells with the baculovirus expressing GST-MEK-1 (full-length) fusion protein at the multiplicity of infection of 5 and harvesting the cells 48 hours post infection. Similar purification procedure was used for GST-c-raf 302-648 and GST-MEK-1.
Transfected cells were suspended at 100 mg of wet cell biomass per mL in a buffer containing 10 mM sodium phosphate, 140 mM sodium chloride pH 7.3, 0.5% Triton X-100 and the protease inhibitor cocktail. […]
Test compounds were serially diluted in DMSO using three-fold dilutions to stock concentrations ranging typically from 50 μM to 20 nM (final concentrations in the assay range from 1 μM to 0.4 nM). […] The filters were dried in a microwave, soaked in scintillation fluid and read in a Wallac 1205 Betaplate Counter (Wallac Inc., Atlanta, Ga., U.S.A.). The results were expressed as percent inhibition.

A short description of data set [5]: Metabolite profile, incubation of [14C]regorafenib with liver microsomes (rat). It counts as in vitro ADME, Wistar rat. Conditions: [14C]regorafenib 20 μM, liver microsomes 0.5 mg/mL, 60 min. The protocol: as §1

T1 sequence (P04049 302-648): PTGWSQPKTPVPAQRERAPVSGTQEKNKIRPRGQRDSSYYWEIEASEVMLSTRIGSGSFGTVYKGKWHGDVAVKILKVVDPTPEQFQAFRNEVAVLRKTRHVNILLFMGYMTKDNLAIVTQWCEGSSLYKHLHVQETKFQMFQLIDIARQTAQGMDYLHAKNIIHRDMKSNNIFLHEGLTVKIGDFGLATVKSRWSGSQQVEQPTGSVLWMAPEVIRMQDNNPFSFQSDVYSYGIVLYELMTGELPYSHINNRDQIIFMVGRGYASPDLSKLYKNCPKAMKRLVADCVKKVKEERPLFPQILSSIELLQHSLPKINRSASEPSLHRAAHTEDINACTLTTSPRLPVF

Turning to `CNC(=O)c1cc(Oc2ccc(NC(=O)Nc3ccc(Cl)c(C(F)(F)F)c3)c(F)c2)ccn1` [Example 1, 4{4-[3-(4-chloro-3-trifluoromethylphenyl)-ureido]-3-fluorophenoxy}-pyridine-2-carboxylic acid methylamide], the half-maximal inhibitory concentration (IC50) in data set [1] (Homo sapiens, MDA-MB-231 cells, 2 h) came to 22 nM; in data set [2] (Homo sapiens, MDA-MB-231 cells, 72 hours) it was 600 nM. Besides, in data set [1] (in words), the “inhibition of basal pERK” value is listed as “significant inhibition”. In addition, the inhibition of proliferation result in data set [2] (in words) is recorded as “significant inhibition”. In addition, the “% of radioactivity, Man” value in data set [3] is given as 59.1%. Moreover, in data set [4], the “inhibition of raf kinase” value is “potent inhibition”. For the same compound, the “% of radioactivity, Wistar rat” value in data set [5] amounted to 75.7%.

One may read the IC50 as the concentration at which inhibition is half-maximal. A low value points to higher potency.
